In article PMC11144398, “Crizotinib inhibits the metabolism of tramadol by non-competitive suppressing the activities of CYP2D1 and CYP3A2” (PeerJ, 2024):

Experiments:
[1] = Serum biochemical analysis (ALT, AST); type: in vivo, Sprague-Dawley rats; conditions: vs control
Procedure: Nine rats were randomly divided into three groups (n = 3): group E received 0.5% CMC-Na for 7 days; group F received 45 mg/kg crizotinib for 6 days; and group G received 45 mg/kg of crizotinib for 7 days. […] The blood, liver, kidney, and small intestine were harvested within 10 min and flash-frozen in liquid nitrogen before being transferred to −80 °C for later use.
Serum was collected after centrifugation of blood sample at 2400 × g for 5 min at 4 °C. The levels of ALT and AST were detected according to the protocol of ALT and AST activity assay kits.

[2] = tested on: liver, kidney and small intestine; test: Morphological examination (H&E staining) of liver, kidney and small intestine; type: in vivo, Sprague-Dawley rats; conditions: crizotinib 45 mg/kg, single dose or 7 consecutive days; vs control group E
Procedure: […] […] The blood, liver, kidney, and small intestine were harvested within 10 min and flash-frozen in liquid nitrogen before being transferred to −80 °C for later use.
Additionally, the tissues were fixed in 10% formalin solution and embedded in paraffin. Hematoxylin-eosin (H&E) staining was performed on paraffin sections, which had been dewaxed, dehydrated, and sealed with neutral gum. Pannoramic MIDI was then used to observe the tissues.

[3] = tested on: tramadol metabolism in rat liver microsomes (RLM); test: Liver microsomal incubation assay: inhibition of tramadol metabolism (O-desmethyl tramadol production) in RLM; type: in vitro ADME; conditions: RLM
Procedure: (§1) All the substance meet the requirements for analysis.
(§2) To obtain the Michaelis kinetic parameters of tramadol in RLM and HLM, a 200 µL incubation system was established containing 2 µL RLM or HLM (0.2 mg/mL), 186 µL 1xPBS buffer (pH = 7.4), 2 µL tramadol (10–500 µM), and 10 µL NADPH (1 mM). The mixture was pre-incubated for 5 min without NADPH in a water bath shaking at 37 °C. Then, NADPH was added to initiate the reaction, and the mixture was incubated for another 30 min. The reaction was terminated by adding 400 µL of cold ACN and 20 µL of IS (500 ng/mL).
(§3) For drug-interaction screening, 100 µM of each drug (1.6 µL) was added to the system, and added PBS to the final volume of 200 uL. Tramadol concentration was set at 60 µM according to the Km.
(§4) To determine the half-maximal inhibitory concentration (IC50), the concentration of crizotinib was set at 0.01, 0.1, 1, 10, 25, 50, and 100 µM, while the concentration of tramadol was constant at 60 µM in RLM or 100 µM in HLM (according to Km).
(§5) All data were presented as mean ± SD (standard deviation).

[4] = tested on: tramadol metabolism (O-desmethyl tramadol production) in rat liver microsomes; test: as above; type: in vitro ADME; conditions: rat, tramadol 60 µM
Procedure: as §1, §2, §3, §4, §5

[5] = Pharmacokinetics of tramadol and O-desmethyl tramadol in SD rats with or without crizotinib; conditions: single dose of crizotinib 45 mg/kg, tramadol 20 mg/kg
From the text: Ultra-performance liquid chromatography-tandem mass spectrometry (UPLC-MS/MS) was utilized to measure the concentration of both tramadol and O-desmethyl tramadol. Separation was achieved using a Waters Acquity UPLC BEH C18 column, with dimensions of 2.1 mm × 50 mm and 1.7-µm particle size (Waters Corp., Milford, MA, USA), and quantitation was completed using a Waters XEVO TQD triple quadruple mass spectrometer. The mobile phase was composed of 0.1% formic acid (A) and ACN (B), and the gradient elution was carried out with a flow rate of 0.4 mL/min, following the procedure: 90–10% A (0–1.4 min), 10–90% A (1.4–1.5 min), and 90% A (1.5–2.0 min). Positive mode was used to detect the analytes with the following transitions: m/z 264.2 →58.0, m/z 250.2 →58.2, and m/z 285.0 →154.0 for tramadol, O-desmethyl tramadol, and diazepam (used as an internal standard, IS), respectively. The collision energy was 20 V for tramadol and O-desmethyl tramadol, and 25 V for diazepam. The standard for tramadol and O-desmethyl tramadol were dissolved in a small amount of DMSO (the concentration was 1 mg/mL) then diluted with acetonitrile (the final concentration was 1 ng/mL–1,000 ng/mL). Diazepam was diluted with methanol gradually to 500 ng/mL).
SD male rats (280 ± 15 g) were purchased from the Shanghai Animal Experimental Center. Before the experiment, the rats were kept in the animal room for two weeks with adequate water and food in order to adapt to the new environment. The room temperature was kept at 20–25 °C and the humidity was kept at 50%–65%. The change period of light and dark conditions was 12 h, which simulates the change of day and night. All animal experiments were approved by the Ethics Committee of Wenzhou Medical University (Approval number: xmsq2022-0621).
Generally speaking, only when at least five or more animals are involved in the experiment can the results be convincing. Thus, twenty SD rats were randomly divided into four groups with five animals per group: group A received a single dose of 20 mg/kg of tramadol; group B received a single dose of 45 mg/kg of crizotinib and 20 mg/kg of tramadol; group C received multiple doses of 0.5% carboxymethylcellulose sodium salt (CMC-Na) for 7 days and a single dose of 20 mg/kg of tramadol; and group D received multiple doses of 45 mg/kg of crizotinib for 7 days and a single dose of 20 mg/kg of tramadol. Prior to the experiment, all rats were fasted for 12 h but allowed free access to water. Once the experiment began, 0.5% CMC-Na and crizotinib were administered to groups C and D for 7 days, respectively, then to groups A and B on the last day of the experiment. After 30 min, all rats were orally administered 20 mg/kg of tramadol. Blood samples were collected from the tail vein at 5 min, 15 min, 30 min, 1 h, 2 h, 3 h, 4 h, 6 h, 8 h, 10 h, 12 h, and 24 h following tramadol administration. […] The samples were centrifuged at 2400 × g for 10 min to obtain serum. Each 50 µL serum was mixed with 150 µL ACN and 20 µL IS (500 ng/mL). After vortexing for 2 min and centrifugation at 16200 × g for 10 min at 4 °C, the supernatant was obtained, then we used UPLC-MS/MS analysis to detect the concentration of tramadol and O-desmethyl tramadol. After the experiment, all the animals were euthanized by 5% isoflurane inhalation anesthesia.
The Michaelis–Menten, IC50, and Lineweaver-Burk plots were generated using GraphPad Prism 6.0 software (GraphPad Software, Boston, MA, USA) with corresponding values for Km, IC50, and Ki (inhibition constant).

[6] = crizotinib 45 mg/kg for consecutive 7 days
[7] = crizotinib 45 mg/kg single dose

C[C@@H](Oc1cc(-c2cnn(C3CCNCC3)c2)cnc1N)c1c(Cl)ccc(F)c1Cl [crizotinib]
level of serum ALT [1, 6]: increased significantly | level of serum AST [1, 6]: increased significantly | level of serum ALT [1, 7]: no significant change | level of serum AST [1, 7]: no significant change | changes in cell morphology, size, arrangement, nuclear morphology of liver, kidney and small intestine (H&E) [2]: no obvious changes | inhibition mode of tramadol metabolism ([3]; Lineweaver-Burk plot): non-competitive | Ki ([3]; Lineweaver-Burk, crizotinib 0, 4, 8, 16 µM, tramadol 15-120 µM): 4.17 µM | inhibition at 30 min, 100 µM ([4]; pH 7.4, RLM, 100 µM of each drug, vs control group, read-out: inhibitory rate on tramadol metabolism (production of O-desmethyl tramadol)): 97.2% | IC50 at 30 min ([4]; pH 7.4, RLM, crizotinib 0.01-100 µM): 8.74 ± 0.18 µM | effect on pharmacokinetic parameters of O-desmethyl tramadol [5]: no significant differences
